Test results published in patent US10251874B2, “Crystalline forms of a JAK inhibitor compound” (THERAVANCE BIOPHARMA R&D IP, LLC, priority 2017, dated 2019).

Legend:
JAK1 = molecular target: T1, JAK1 (Homo sapiens, UniProt P23458); experiment: Assay 1: LanthaScreen biochemical JAK kinase assay, JAK1; settings: converted from pIC50 by Cheng-Prusoff; ATP at Km 25 μM; read-out: JAK 1 pKi (converted)
T1 construct: GST; purchased Life Technologies
Procedure: (§1) A panel of four LanthaScreen JAK biochemical assays (JAK1, 2, 3 and Tyk2) were carried in a common kinase reaction buffer (50 mM HEPES, pH 7.5, 0.01% Brij-35, 10 mM MgCl2, and 1 mM EGTA). Recombinant GST-tagged JAK enzymes and a GFP-tagged STAT1 peptide substrate were obtained from Life Technologies.
(§2) The serially diluted compound was pre-incubated with each of the four JAK enzymes and the substrate in white 384-well microplates (Corning) at ambient temperature for lh. ATP was subsequently added to initiate the kinase reactions in 10 μL total volume, with 1% DMSO. […] The plates were allowed to incubate at ambient temperature for lh before being read on the EnVision reader (Perkin Elmer). Emission ratio signals (520 nm/495 nm) were recorded and utilized to calculate the percent inhibition values based on DMSO and background controls.
(§3) For dose-response analysis, percent inhibition data were plotted vs. compound concentrations, and IC50 values were determined from a 4-parameter robust fit model with the Prism software (GraphPad Software). Results were expressed as pIC50 (negative logarithm of IC50) and subsequently converted to pK1 (negative logarithm of dissociation constant, Ki) using the Cheng-Prusoff equation.

JAK2 = molecular target: T2, JAK2 (Homo sapiens, UniProt O60674); experiment: Assay 1: LanthaScreen biochemical JAK kinase assay, JAK2; settings: converted from pIC50 by Cheng-Prusoff; ATP at Km 3 μM; read-out: JAK 2 pKi (converted)
T2 construct: GST; purchased Life Technologies
Procedure: as §1, §2, §3

[1] = test system: IL-6 stimulated pSTAT3 in CD3+ T cells; experiment: Assay 6: Inhibition of IL-6 stimulated pSTAT3 in CD3+ T cells; assay type: cell-based; settings: T-cell; CD3+ T cells in human PBMCs, flow cytometry; read-out: pIC50, inhibition of IL-6 stimulated pSTAT3 (converted)
From the text: A protocol analogous to that of Assay 5 was used to determine the potency of the test compound for inhibition of interleuken-6 (IL-6) stimulated STAT3 phosphorylation.
An Alexa Fluor 647 conjugated anti-pSTAT3 antibody (pY705, Clone 4/P, BD Biosciences) was used to detect STAT3 phosphorylation.

JAK3 = molecular target: T3, JAK3 (Homo sapiens, UniProt P52333); experiment: Assay 1: LanthaScreen biochemical JAK kinase assay, JAK3; settings: converted from pIC50 by Cheng-Prusoff; ATP at Km 1.6 μM; read-out: JAK 3 pKi (converted)
T3 construct: GST; purchased Life Technologies
T3 sequence (P52333 1-1124): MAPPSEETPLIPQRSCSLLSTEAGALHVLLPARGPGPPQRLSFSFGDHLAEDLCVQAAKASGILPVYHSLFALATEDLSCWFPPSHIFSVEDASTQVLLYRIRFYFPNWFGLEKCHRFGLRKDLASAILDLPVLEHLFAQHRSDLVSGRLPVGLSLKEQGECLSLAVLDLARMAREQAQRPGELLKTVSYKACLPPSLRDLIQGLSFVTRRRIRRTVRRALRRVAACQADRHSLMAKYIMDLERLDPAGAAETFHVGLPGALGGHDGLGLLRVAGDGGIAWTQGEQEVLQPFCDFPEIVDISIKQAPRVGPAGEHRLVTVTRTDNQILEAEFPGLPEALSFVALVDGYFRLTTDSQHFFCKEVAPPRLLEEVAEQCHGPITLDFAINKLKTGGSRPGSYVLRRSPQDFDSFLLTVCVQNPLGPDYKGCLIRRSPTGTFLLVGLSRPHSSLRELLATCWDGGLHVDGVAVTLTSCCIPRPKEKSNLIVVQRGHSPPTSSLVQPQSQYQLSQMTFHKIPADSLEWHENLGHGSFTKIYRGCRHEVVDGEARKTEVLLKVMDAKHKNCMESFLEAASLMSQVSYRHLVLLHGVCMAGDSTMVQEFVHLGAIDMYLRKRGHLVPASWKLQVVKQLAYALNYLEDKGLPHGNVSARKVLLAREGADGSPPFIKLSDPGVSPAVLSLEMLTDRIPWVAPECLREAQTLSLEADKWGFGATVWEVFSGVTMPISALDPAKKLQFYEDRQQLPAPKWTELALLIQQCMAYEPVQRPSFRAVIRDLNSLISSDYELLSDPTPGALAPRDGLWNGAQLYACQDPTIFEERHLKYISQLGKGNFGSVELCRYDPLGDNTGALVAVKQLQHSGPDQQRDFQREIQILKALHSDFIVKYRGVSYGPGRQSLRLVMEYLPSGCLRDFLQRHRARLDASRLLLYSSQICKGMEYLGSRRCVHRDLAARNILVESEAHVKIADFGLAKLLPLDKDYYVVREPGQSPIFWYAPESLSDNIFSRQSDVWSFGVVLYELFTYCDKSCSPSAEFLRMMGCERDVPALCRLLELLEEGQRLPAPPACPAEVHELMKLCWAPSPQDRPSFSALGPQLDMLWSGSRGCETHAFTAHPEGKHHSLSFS
Procedure: as §1
ATP was subsequently added to initiate the kinase reactions in 10 μL total volume, with 1% DMSO. […] Kinase reactions were allowed to proceed for 1 hour at ambient temperature before a 10 μL preparation of EDTA (10 mM final concentration) and Tb-anti-pSTAT1 (pTyr701) antibody (Life Technologies, 2 nM final concentration) in TR-FRET dilution buffer (Life Technologies) was added. […] Emission ratio signals (520 nm/495 nm) were recorded and utilized to calculate the percent inhibition values based on DMSO and background controls.
For dose-response analysis, percent inhibition data were plotted vs. compound concentrations, and IC50 values were determined from a 4-parameter robust fit model with the Prism software (GraphPad Software).

T2 sequence (O60674 whole entry): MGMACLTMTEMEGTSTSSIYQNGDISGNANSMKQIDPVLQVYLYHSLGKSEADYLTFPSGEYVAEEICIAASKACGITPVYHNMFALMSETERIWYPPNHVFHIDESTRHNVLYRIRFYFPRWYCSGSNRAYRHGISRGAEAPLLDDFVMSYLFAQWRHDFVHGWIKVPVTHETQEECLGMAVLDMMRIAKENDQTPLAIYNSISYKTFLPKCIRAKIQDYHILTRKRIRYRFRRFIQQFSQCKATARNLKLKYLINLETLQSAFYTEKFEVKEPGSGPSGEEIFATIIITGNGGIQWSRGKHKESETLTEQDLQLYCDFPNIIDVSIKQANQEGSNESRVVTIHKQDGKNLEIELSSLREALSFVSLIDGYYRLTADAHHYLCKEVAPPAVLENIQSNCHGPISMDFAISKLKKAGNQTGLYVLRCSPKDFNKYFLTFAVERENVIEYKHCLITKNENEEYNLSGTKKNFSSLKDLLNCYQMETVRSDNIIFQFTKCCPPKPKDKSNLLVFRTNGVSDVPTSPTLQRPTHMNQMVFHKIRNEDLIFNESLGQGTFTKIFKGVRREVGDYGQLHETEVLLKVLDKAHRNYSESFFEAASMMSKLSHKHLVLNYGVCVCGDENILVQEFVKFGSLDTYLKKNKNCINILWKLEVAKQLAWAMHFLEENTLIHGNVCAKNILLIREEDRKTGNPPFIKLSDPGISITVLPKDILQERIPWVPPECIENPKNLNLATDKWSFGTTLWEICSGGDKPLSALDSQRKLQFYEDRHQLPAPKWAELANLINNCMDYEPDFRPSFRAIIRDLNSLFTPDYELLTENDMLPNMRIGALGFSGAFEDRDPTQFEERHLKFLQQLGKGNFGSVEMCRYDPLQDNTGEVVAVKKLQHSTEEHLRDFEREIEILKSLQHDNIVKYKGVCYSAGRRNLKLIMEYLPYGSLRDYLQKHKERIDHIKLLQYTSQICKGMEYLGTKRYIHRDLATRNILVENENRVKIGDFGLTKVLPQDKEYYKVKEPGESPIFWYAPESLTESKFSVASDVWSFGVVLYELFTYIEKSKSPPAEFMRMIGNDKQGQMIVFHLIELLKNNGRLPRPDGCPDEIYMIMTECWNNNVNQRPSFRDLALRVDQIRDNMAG
T1 sequence (P23458 whole entry): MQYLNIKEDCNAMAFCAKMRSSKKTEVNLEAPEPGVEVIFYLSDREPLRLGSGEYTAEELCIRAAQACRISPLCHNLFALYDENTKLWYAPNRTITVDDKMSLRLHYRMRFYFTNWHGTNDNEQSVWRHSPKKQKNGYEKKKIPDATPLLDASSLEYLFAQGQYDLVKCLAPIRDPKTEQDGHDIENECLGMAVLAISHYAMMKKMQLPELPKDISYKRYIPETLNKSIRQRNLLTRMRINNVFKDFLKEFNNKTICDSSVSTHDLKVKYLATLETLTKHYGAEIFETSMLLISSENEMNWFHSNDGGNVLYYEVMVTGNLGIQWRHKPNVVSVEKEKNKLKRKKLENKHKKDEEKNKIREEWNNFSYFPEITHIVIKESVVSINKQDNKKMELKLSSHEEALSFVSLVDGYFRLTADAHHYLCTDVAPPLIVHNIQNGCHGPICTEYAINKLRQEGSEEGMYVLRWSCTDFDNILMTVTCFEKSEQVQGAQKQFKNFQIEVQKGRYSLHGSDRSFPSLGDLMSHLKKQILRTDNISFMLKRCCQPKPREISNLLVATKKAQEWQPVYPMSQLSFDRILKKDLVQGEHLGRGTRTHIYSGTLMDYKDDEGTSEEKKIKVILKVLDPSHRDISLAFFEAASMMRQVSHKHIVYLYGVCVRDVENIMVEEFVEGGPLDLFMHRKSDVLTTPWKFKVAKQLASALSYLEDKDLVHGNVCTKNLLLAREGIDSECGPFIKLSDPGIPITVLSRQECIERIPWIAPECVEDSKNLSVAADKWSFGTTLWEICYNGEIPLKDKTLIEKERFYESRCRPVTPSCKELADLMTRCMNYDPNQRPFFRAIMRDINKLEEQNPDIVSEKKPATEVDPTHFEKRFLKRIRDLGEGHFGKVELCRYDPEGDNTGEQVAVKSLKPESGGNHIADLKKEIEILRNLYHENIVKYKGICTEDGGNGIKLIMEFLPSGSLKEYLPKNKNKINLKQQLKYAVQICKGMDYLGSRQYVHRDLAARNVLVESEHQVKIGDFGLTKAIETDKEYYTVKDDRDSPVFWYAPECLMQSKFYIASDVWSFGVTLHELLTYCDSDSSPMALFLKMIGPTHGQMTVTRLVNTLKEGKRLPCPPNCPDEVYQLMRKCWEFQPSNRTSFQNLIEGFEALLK

Which results are given for `CCc1cc(O)c(F)cc1-c1ccc2c(-c3nc4c([nH]3)CCN(C3CCN(C)CC3)C4)n[nH]c2c1` [Compound 1, 5-ethyl-2-fluoro-4-(3-(5-(1-methylpiperidin-4-yl)-4,5,6,7-tetrahydro-1H-imidazo[4,5-c]pyridin-2-yl)-1H-indazol-6-yl)phenol]?
Ki (JAK1): 0.0631 nM; Ki (JAK2): 0.0158 nM; IC50 [1]: 39.8 nM; Ki (JAK3): 0.2 nM
